Experimental data: patent US20100004159A1, “SUBSTITUTED IMIDAZOLONE DERIVATIVES, PREPARATIONS AND USES” (GENFIT, priority 2006, published 2010)

Assays:
[1] = system: PPARs target genes; experiment: Expression of PPAR target genes by quantitative RT-PCR in db/db mouse tissue; type: in vivo; conditions: db/db mice, 50 mpk for 28 days
Method: Samples of hepatic tissue and adipose epididymal tissue were taken and frozen immediately in liquid nitrogen then conserved at −80° C. for later analysis.
Total RNA was extracted from liver fragments by using a NucleoSpine 96 RNA kit (Macherey Nagel, Hoerdt, France) according to the manufacturer's instructions.
The total RNA of the adipose tissue was extracted from tissue fragments with a method using guanidine thiocyanate. The tissues were briefly homogenized in 5 mL of a lysis buffer (guanidine thiocyanate 4M, EDTA pH8 10 mM, Tris HCl pH 7.5 50 mM and b-mercaptoethanol 1.4%) using polytron. To separate the layers, 500 μL of sodium acetate 2M pH4, 5 mL of phenol, and 2 mL of a mixture of chloroform/isoamylic alcohol (49:1) were added. After centrifugation, the aqueous layer was collected and the RNA was precipitated in the presence of isopropanol. After a second precipitation, the RNA was washed with ethanol 70°, dried, then suspended again in an volume of water free of RNase. A step of purification/DNase I treatment of the RNA was then carried out by using NucleoSpin® 96 RNA kit (Macherey-Nagel) according to the manufacturer's instructions. 1 μg of total RNA (quantified by using the Ribogreen RNA quantification kit (Molecular Probes)) was then reverse-transcribed into cDNA by means of a 1 hour reaction at 37° C. in a total volume of 20 μl containing a buffer 1× (Sigma), 1.5 mM of DTT, 0.18 mM, of dNTPs (Promega), 200 ng of pdN6 (Amersham), 30 U of RNase inhibitor (Sigma), and 1 μl of MMLV-RT (Sigma). The quantitative PCR experiments were carried out using the MyiQ Single-Color Real-Time PCR Detection System (Biorad, Marnes-la-Coquette, France) and were performed using the iQ SYBR Green Supermix kit according to the manufacturer's recommendations, in 96-well plates in 5 μl of a diluted reverse transcription solution at a hybridization temperature of 55° C. Primer pairs specific to the studied genes were used:
The quantity of emitted fluorescence is directly proportional to the quantity of cDNA present at the beginning of the reaction and amplified during the PCR. For each target studied, a range of solutions is performed with successive dilutions of a mixture made up of a few μl of different reverse-transcription solutions. The relative levels of expression of each target are thus determined by using efficiency curves obtained with the points relative to the range.
The expression levels of the genes of interest were then normalized, in the hepatic tissue with respect to the level expression of reference gene 36B4 (whose specific primers are: sense primer: 5′-[…]-3′ (SEQ ID NO: 15) and antisense primer: 5′-[…]-3′ (SEQ ID NO: 16)), and in the adipose tissue with respect to reference gene 18S (whose specific primers are: sense primer: 5′-[…]-3′ (SEQ ID NO: 17) and antisense primer: 5′-[…]-3′ (SEQ ID NO: 18)). The induction factor was then calculated for each sample. The higher the induction factor is, the more the compound promotes gene expression. The final result is represented as the average of the induction values within each experimental group.

[2] = target: T1, hPPARγ (Homo sapiens, UniProt P37231); experiment: Gal4-hPPARγ transactivation in COS-7 cells (luciferase); type: cell-based; conditions: COS-7 cells transfected pGal4-hPPAR, 0.01 to 100 μM
T1 construct: DNA fragments amplified by PCR and corresponding to the DEF domains of human PPARα, PPARγ, and PPARδ nuclear receptors; expressed in transfected cells; host or cells: COS-7
T1 sequence (P37231 238-503 limits assumed): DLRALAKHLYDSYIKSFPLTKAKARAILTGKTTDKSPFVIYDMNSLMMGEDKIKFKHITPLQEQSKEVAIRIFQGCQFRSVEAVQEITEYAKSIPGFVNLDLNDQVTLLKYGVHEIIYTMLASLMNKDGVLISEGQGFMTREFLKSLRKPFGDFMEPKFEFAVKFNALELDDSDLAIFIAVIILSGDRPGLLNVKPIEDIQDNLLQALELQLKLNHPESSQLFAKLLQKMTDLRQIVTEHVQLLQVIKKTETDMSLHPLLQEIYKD
Method: (§1) The activation of PPARs was evaluated in vitro using a monkey kidney fibroblast line (COS-7) by measuring the transcriptional activity of chimeras made up of the DNA binding domain of the Gal4 transcription factor of yeast and of the binding domain to the ligand of the different PPARs. The compounds were tested at doses of between 0.01 and 100 μM on Gal4-PPARα, γ, and δ chimeras.
(§2) COS-7 cells came from ATCC (American type culture collection) and were cultivated in a DMEM medium supplemented with 10% (vol/vol) of fetal calf serum, 100 U/ml of penicillin (Gibco, Paisley, UK) and 2 mM of L-Glutamine (Gibco, Paisley, UK). The cells were incubated at 37° C. under humid atmosphere containing 5% CO2.
(§3) The plasmids Gal4(RE)_TkpGL3, pGal4-hPPARα, pGal4-hPPARγ, pGal4-hPPARδ and pGal4-φ have been described in the literature (Raspe E et al., 1999). The constructions pGal4-hPPARα, pGal4-hPPARγ, and pGal4-hPPARδ were obtained by cloning, in the pGal4-φ vector, DNA fragments amplified by PCR and corresponding to the DEF domains of human PPARα, PPARγ, and PPARδ nuclear receptors.
(§4) The COS-7 cells in suspension were transfected with 150 ng of DNA per well, with a pGal4-PPAR/Gal4(RE)_TkpGL3 ratio of 1/10, in presence of 10% fetal calf serum. The cells were then plated in 96-well plates (4×10^4 cells/well), then incubated for 24 hours at 37° C. Activation with the test compounds was performed for 24 hours at 37° C. in a medium without serum. At the end of the experiment, the cells were lysed and the luciferase activity was determined using the Steady-Lite™ HTS (Perkin Elmert) or the Steady Glow Luciferase kit (Promega), in accordance with the provider's recommendations.
(§5) The compounds according to the invention were tested at doses between 0,01 and 100 μM on the 3 PPAR isoforms. The results obtained are presented in detail under FIG. 1a.

[3] = target: T2, hPPARα (Homo sapiens, UniProt Q07869); experiment: Gal4-hPPARα transactivation in COS-7 cells (luciferase); type: cell-based; conditions: COS-7 cells transfected pGal4-hPPAR, 0.01 to 100 μM
T2 construct: DNA fragments amplified by PCR and corresponding to the DEF domains of human PPARα, PPARγ, and PPARδ nuclear receptors; expressed in transfected cells; host or cells: COS-7
T2 sequence (Q07869 239-466 limits assumed): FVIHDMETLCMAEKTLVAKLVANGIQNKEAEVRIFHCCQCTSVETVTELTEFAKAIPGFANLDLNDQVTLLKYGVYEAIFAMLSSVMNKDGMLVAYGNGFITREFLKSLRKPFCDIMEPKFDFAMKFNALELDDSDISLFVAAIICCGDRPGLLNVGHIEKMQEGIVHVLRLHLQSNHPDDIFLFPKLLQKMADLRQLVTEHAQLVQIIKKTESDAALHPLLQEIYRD
Method: as §1, §2, §3, §4, §5

SMILES | melting point | hepatic expression of the gene coding for CPT1 b [1] | hepatic expression of the gene coding for PDK-4 [1] | expression of the gene coding for ApoCIII ([1]; liver) | expression of the gene coding for FBb ([1]; liver) | activation of hPPARγ (luciferase activity) [2] | activation of hPPARα (luciferase activity) [3]
CCCCC1=NC2(CCCC2)C(=O)N1Cc1ccc(-c2ccc(OC(C)(C)C(=O)O)cc2)cc1 [Compound 2, 2-butyl-1-[(4′-((1-carboxy-1,1-dimethylmethyl)oxy)biphenyl-4-yl)methyl]-4-spirocyclopentyl-1H-imidazol-5(4H)-one] | 180 °C | significant increase | significant increase | significant decrease | significant decrease |  | 
CCCCC1=NC2(CCCCC2)C(=O)N1Cc1ccc(-c2ccc(OC(C)(C)C(=O)O)cc2)cc1 [Compound 25, 2-butyl-1-[(4′-((1-carboxy-1,1-dimethylmethyl)oxy)biphenyl-4-yl)methyl]-4-spirocyclohexyl-1H-imidazol-5(4H)-one] | 75 to 77 °C |  |  |  |  | activates only hPPARα | activates only hPPARα
